# Experimental data reported in patent US10421754B2, “Quinazoline derivative” (CSPC ZHONGQI PHARMACEUTICAL TECHNOLOGY (SHIJIAZHUANG) CO., …, priority 2014, dated 2019).
# Assays:
# [1] = tested on: A375; assay: In vitro cell experiment (MTT), A375; assay type: cell-based; settings: A-375, 72 h, human melanoma cells (KDR expressing)
# Procedure: (§1) Cells in logarithmic growth phase were seeded at a certain density in a 96-well plate (200 μL/well). The cells were allowed to grow for 24 h and subsequently treated with different concentrations of drugs (including a blank group and a control group) and incubated for 72 h at 37° C. Each concentration in a given experiment was tested in triplicate. After 72 h of exposure, 20 μL of the MTT labeling reagent was added to the medium (the final concentration of MTT was 0.5 mg/mL), and the cells were incubated for additional 4 h at 37° C. Following this process, 180 μL of the medium was removed and 130 μL of DMSO was added to each well, or the medium was completely removed and 150 μL of DMSO was added to each well. Then the plate was shaken and mixed in a micro-oscillator. Finally the optical density (OD) of each sample was measured in a micro-plate reader at 550 nm. Cell inhibition rate was calculated according to the following formula: […]
# (§2) According to cell inhibition rates, IC50 was calculated by LOGIT method. The experiments were repeated twice and the data was expressed as means±SD.
# [2] = tested on: HCT116; assay: In vitro cell experiment (MTT), HCT116; assay type: cell-based; settings: HCT-116, 72 h, human colon carcinoma cells
# Procedure: as §1, §2
# [3] = tested on: H292; assay: In vitro cell experiment (MTT), H292; assay type: cell-based; settings: NCI-H292, 72 h, human lung carcinoma cells (EGFR1 overexpressing)
# Procedure: as §1, §2
# [4] = tested on: Eca109; assay: In vitro cell experiment (MTT), Eca109; assay type: cell-based; settings: ECa-109, 72 h, human esophageal carcinoma cells
# Procedure: as §1, §2
# [5] = tested on: HCC827; assay: In vitro cell experiment (MTT), HCC827; assay type: cell-based; settings: 72 h, human non-small cell lung carcinoma (EGFR1 19 exon mutation)
# Procedure: as §1, §2
# [6] = tested on: HUVEC; assay: In vitro cell experiment (MTT), HUVEC; assay type: cell-based; settings: 72 h, human umbilical vein endothelial cell (KDR overexpressing)
# Procedure: as §1, §2
# [7] = target: FLT-1 (Homo sapiens, UniProt P17948); assay: In vitro enzyme experiment (ELISA), FLT-1; assay type: biochemical; settings: Poly (Glu, Tyr)4:1 substrate, 5 μM ATP
# Chain of FLT-1 (P17948 27-1338): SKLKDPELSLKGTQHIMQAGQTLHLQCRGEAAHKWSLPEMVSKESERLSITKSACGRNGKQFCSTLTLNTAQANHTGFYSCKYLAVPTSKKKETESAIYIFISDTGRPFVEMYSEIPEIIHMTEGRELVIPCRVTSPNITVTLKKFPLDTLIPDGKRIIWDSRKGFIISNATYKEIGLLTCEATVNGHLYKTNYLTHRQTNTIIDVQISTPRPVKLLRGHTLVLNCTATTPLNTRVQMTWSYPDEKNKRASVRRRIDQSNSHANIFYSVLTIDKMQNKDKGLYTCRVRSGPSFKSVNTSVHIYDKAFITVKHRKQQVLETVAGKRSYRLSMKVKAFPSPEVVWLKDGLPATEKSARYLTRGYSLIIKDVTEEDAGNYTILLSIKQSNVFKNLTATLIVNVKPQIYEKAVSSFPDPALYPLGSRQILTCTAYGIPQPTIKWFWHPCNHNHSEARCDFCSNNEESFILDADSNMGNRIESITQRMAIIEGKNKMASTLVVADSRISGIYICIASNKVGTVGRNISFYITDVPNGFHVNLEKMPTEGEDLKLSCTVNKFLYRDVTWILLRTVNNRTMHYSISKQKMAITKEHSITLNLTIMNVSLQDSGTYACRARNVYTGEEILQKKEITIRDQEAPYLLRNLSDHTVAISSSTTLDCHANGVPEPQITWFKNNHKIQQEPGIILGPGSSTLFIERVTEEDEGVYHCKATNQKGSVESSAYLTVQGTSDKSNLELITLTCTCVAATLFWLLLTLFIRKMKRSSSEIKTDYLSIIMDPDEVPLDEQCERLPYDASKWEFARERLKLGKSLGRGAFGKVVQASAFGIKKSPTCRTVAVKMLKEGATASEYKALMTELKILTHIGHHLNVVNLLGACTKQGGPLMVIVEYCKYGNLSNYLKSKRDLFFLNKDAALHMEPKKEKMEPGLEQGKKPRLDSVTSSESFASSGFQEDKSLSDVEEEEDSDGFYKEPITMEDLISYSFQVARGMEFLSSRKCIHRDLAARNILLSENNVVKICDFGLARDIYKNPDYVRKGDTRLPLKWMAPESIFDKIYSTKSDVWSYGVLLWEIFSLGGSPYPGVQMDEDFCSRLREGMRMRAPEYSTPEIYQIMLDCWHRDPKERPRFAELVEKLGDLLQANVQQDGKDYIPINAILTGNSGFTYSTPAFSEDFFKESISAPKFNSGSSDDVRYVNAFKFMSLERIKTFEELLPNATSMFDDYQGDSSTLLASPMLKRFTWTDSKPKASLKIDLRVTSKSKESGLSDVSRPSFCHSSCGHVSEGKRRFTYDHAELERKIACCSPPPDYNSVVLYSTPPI
# Procedure: FLT-1: Human vascular endothelial growth factor receptor 1
# (§3) ELISA: The enzyme plate was coated by enzyme reaction substrate (Poly (Glu, Tyr)4:1) at a density of 20 μg/ml. Then the enzyme, the sample and 5 μM ATP were mixed in the well to react. After the reaction, the substrate phosphorylation was detected by anti-phosphotyrosine monoclonal antibody (4G10). In the next step, the goat-anti-mouse IgG linking with horse radish peroxidase (HRP) and tetramethylbenzidine (TMB) were added sequentially in the well to evaluate the level of substrate phosphorylation by the degree of color depth. In the experiment, a blank group without tyrosine kinase and a control group with the corresponding concentration of DMSO were established. Finally, 50 μL/well of H2SO4 at a concentration of 0.18M was added in each well to stop the reaction. The optical density (OD) of each sample was measured in a micro-plate reader at 450 nm.
# (§4) The relative inhibition rate of the compound against tyrosine kinase protein was determined.
# (§5) According to the inhibition rates at different concentrations, IC50 was calculated by LOGIT method. The experiments were repeated three times, and the average of three IC50 values was the final index to evaluate the ability of inhibition.
# [8] = target: AXL (Homo sapiens, UniProt P30530); assay: In vitro enzyme experiment (ELISA), AXL; assay type: biochemical; settings: Poly (Glu, Tyr)4:1 substrate, 5 μM ATP
# Procedure: as §3, with “AXL: Anaplastic lymphoma kinase Methods: ELISA:” for “ELISA:”, “nm. The relative inhibition rate of the compound against tyrosine kinase protein was determined. According to the inhibition rates at different concentrations, IC50 was calculated by LOGIT method. The experiments were repeated three times, and the average of three IC50 values was the final index to evaluate the ability of inhibition.” for “nm.”
# [9] = tested on: CFPAC-1; assay: In vitro cell experiment (MTT), CFPAC-1; assay type: cell-based; settings: 72 h, human pancreatic carcinoma cells
# Procedure: as §1, §2
# [10] = tested on: A431; assay: In vitro cell experiment (MTT), A431; assay type: cell-based; settings: A-431, 72 h, human epidermoid carcinoma (EGFR1 overexpressing)
# Procedure: as §1, §2
# [11] = target: FGFR-1 (Homo sapiens, UniProt P11362); assay: In vitro enzyme experiment (ELISA), FGFR-1; assay type: biochemical; settings: Poly (Glu, Tyr)4:1 substrate, 5 μM ATP
# Chain of FGFR-1 (P11362 22-822, species assumed): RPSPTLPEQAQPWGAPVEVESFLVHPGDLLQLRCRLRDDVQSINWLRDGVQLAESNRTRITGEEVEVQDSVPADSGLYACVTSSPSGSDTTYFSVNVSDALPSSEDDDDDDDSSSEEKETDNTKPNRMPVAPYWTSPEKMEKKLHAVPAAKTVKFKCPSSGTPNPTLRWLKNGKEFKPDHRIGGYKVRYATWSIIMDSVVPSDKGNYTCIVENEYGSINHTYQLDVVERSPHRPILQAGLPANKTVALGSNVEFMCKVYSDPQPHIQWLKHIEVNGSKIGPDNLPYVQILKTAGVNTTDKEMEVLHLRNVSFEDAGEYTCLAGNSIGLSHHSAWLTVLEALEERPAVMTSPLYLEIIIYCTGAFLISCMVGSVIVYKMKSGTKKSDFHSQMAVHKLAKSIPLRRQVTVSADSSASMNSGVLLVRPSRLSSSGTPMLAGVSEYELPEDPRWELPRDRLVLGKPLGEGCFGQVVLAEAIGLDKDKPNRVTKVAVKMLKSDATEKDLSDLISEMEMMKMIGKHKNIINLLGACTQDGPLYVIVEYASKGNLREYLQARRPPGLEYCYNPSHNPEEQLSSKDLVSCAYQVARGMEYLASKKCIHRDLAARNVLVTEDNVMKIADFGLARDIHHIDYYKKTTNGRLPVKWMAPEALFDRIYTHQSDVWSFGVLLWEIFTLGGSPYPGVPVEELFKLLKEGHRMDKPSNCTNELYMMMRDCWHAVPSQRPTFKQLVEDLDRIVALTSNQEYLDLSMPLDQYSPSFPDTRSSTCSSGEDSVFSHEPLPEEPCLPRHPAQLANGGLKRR
# Procedure: FGFR-1: Fibroblast growth factor receptor 1
# as §3, §4, §5
# [12] = tested on: Bel-7402; assay: In vitro cell experiment (MTT), Bel-7402; assay type: cell-based; settings: 72 h, human hepatoma carcinoma cells
# Procedure: as §1, §2
# [13] = tested on: PC-9; assay: In vitro cell experiment (MTT), PC-9; assay type: cell-based; settings: 72 h, human non-small-cell lung carcinoma cells (EGFR1 19 exon mutation)
# Procedure: as §1, §2
# [14] = tested on: SK-OV-3; assay: In vitro cell experiment (MTT), SK-OV-3; assay type: cell-based; settings: 72 h, human ovarian carcinoma cells (EGFR2 overexpressing)
# Procedure: as §1, §2
# [15] = tested on: SGC7901; assay: In vitro cell experiment (MTT), SGC7901; assay type: cell-based; settings: SGC-7901, 72 h, human gastric carcinoma cells
# Procedure: as §1, §2
# [16] = target: RET (Homo sapiens, UniProt P07949); assay: In vitro enzyme experiment (ELISA), RET; assay type: biochemical; settings: Poly (Glu, Tyr)4:1 substrate, 5 μM ATP
# Procedure: RET: A receptor involved in thyroid cancer
# as §3, §4, §5
# [17] = tested on: 3T3swiss; assay: In vitro cell experiment (MTT), 3T3swiss; assay type: cell-based; settings: Fibroblast, 72 h, mouse fibroblasts (PDGFR overexpressing)
# Procedure: as §1, §2
# [18] = Mouse maximum tolerated dose (MTD) experiment; settings: in vivo, mice, oral, administered 7 days then observed 7 days
# Procedure: In the mouse MTD experiment, the mice were administrated with the present compounds.
# Healthy mice, having a small difference in body's weights, were chosen. The chosen mice were placed in different layers of cages according to their body's weights. In each layer, the mice were randomly divided into groups. In each group, there were three mice.
# The administration dosages were 1000, 500, 250, 125, 62.5 and 31.25 mg/kg respectively and each two dosages differed by a factor of 2. For each of administration dosages, three mice were allotted. The mice were administrated with the present compounds for 7 days and then observed for the next 7 days without the present compounds.
# The present compounds were orally administrated with the mice according to the administration dosage and the body weight.
# [19] = tested on: TT; assay: In vitro cell experiment (MTT), TT; assay type: cell-based; settings: 72 h, human thyroid carcinoma cells (RET C634W mutation)
# Procedure: as §1, §2
# [20] = target: KDR (Homo sapiens, UniProt P35968); assay: In vitro enzyme experiment (ELISA), KDR; assay type: biochemical; settings: Poly (Glu, Tyr)4:1 substrate, 5 μM ATP
# Procedure: KDR: Human vascular endothelial growth factor receptor 2
# as §3, §4, §5
# [21] = tested on: A549; assay: In vitro cell experiment (MTT), A549; assay type: cell-based; settings: 72 h, human non-small-cell lung carcinoma cells (EGFR1 wildtype)
# Procedure: as §1, §2
# [22] = tested on: HT-29; assay: In vitro cell experiment (MTT), HT-29; assay type: cell-based; settings: 72 h, human colon carcinoma cells (expressing both c-KIT and PDGFR)
# Procedure: as §1, §2
# [23] = target: PDGFRβ (Homo sapiens, UniProt P09619); assay: In vitro enzyme experiment (ELISA), PDGFRβ; assay type: biochemical; settings: Poly (Glu, Tyr)4:1 substrate, 5 μM ATP
# Chain of PDGFRβ (P09619 33-1106, species assumed): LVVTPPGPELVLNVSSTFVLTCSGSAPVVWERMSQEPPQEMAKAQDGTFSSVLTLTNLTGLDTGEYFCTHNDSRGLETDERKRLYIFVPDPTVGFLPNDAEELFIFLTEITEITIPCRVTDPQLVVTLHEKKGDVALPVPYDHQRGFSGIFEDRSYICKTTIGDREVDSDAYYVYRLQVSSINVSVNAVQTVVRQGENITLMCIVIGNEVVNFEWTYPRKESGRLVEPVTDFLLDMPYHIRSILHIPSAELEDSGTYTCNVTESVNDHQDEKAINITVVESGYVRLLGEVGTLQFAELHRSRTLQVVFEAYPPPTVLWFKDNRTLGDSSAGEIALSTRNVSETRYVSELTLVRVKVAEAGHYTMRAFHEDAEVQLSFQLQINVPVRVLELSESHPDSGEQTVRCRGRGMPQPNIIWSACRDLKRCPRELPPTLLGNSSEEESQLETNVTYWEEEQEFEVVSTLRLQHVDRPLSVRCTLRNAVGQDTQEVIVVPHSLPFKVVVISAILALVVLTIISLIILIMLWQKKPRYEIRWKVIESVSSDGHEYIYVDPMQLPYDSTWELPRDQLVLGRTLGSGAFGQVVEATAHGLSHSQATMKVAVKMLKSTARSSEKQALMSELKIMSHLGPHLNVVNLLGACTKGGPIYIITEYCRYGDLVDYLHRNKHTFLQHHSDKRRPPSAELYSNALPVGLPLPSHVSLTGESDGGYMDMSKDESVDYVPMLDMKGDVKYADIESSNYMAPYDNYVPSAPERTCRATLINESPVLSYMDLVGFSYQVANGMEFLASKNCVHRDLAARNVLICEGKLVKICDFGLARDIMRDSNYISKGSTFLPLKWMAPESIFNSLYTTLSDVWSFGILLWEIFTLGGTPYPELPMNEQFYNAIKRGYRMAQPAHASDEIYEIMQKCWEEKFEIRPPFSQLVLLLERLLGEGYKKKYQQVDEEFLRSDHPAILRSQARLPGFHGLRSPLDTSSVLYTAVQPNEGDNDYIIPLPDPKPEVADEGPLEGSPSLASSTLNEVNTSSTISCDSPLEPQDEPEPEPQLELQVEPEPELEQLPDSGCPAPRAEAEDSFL
# Procedure: PDGFRβ: Platelet-derived growth factor receptor β
# as §3, §4, §5
# [24] = target: EGFR (Homo sapiens, UniProt P00533); assay: In vitro enzyme experiment (ELISA), EGFR; assay type: biochemical; settings: Poly (Glu, Tyr)4:1 substrate, 5 μM ATP
# Chain of EGFR (P00533 25-1210): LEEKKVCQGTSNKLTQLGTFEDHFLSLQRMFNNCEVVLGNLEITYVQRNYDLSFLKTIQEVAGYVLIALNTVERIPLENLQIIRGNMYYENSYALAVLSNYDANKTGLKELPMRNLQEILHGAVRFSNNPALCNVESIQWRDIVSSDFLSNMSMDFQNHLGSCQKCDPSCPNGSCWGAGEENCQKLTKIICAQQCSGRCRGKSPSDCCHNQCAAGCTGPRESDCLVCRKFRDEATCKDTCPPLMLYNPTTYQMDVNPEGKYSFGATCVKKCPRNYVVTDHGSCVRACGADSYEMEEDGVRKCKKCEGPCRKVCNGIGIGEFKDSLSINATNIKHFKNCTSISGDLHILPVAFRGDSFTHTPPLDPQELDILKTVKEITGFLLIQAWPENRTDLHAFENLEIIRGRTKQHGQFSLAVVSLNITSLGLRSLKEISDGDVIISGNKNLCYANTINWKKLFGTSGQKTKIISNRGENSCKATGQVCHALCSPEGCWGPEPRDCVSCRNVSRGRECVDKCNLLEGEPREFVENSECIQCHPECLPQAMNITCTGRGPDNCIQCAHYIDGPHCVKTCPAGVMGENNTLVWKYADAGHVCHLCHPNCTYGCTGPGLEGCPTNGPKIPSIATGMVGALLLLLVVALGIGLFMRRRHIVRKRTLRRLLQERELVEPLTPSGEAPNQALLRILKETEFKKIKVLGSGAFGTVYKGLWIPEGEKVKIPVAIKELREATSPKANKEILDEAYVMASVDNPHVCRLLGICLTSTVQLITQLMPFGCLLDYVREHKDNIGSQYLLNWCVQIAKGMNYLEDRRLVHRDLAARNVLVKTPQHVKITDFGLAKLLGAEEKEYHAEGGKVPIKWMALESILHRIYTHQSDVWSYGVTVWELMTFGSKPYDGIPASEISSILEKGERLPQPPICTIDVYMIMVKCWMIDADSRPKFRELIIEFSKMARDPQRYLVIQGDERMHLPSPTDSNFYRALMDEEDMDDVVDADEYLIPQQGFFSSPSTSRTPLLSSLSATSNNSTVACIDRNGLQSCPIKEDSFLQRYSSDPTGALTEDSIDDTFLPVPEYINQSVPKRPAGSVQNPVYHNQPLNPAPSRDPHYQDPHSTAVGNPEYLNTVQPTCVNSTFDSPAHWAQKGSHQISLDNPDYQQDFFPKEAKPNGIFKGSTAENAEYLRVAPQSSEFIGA
# Procedure: EGFR: Human epidermal growth factor receptor 1
# as §3, §4, §5
# [25] = tested on: A498; assay: In vitro cell experiment (MTT), A498; assay type: cell-based; settings: 72 h, human renal carcinoma cells
# Procedure: as §1, §2
# [26] = target: BTK (Homo sapiens, UniProt Q06187); assay: In vitro enzyme experiment (ELISA), BTK; assay type: biochemical; settings: Poly (Glu, Tyr)4:1 substrate, 5 μM ATP
# Chain of BTK (Q06187 whole entry, species assumed): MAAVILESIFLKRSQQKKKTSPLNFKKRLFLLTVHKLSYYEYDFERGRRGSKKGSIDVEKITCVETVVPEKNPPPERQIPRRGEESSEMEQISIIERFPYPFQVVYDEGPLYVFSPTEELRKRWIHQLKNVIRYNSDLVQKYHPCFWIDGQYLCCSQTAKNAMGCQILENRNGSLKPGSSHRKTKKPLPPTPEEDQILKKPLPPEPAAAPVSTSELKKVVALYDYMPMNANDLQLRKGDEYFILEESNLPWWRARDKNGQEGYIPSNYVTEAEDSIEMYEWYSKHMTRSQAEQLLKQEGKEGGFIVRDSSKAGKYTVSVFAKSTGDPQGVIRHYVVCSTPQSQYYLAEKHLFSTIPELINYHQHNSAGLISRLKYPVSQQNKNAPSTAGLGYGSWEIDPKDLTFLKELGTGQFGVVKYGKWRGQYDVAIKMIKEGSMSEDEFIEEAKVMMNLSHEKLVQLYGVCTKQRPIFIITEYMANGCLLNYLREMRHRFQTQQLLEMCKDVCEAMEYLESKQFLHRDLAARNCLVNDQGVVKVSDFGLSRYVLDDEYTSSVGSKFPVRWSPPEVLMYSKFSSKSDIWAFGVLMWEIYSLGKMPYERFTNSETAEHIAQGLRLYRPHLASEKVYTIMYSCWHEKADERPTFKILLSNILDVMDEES
# Procedure: BTK: Bruton tyrosine kinase
# as §3, §4, §5
Compound,IC50 [1],IC50 [2],IC50 [3],IC50 [4],IC50 [5],IC50 [6],IC50 [7],IC50 [8],IC50 [9],IC50 [10],IC50 [11],IC50 [12],IC50 [13],IC50 [14],IC50 [15],IC50 [17],IC50 [19],IC50 [21],IC50 [22],IC50 [25],further results
"COc1cc2c(Nc3ccc(Br)cc3F)ncnc2cc1OCCN1CCCC1 [Compound 2, 4-(4-bromo-2-fluoroanilino)-6-methoxy-7-((2-pyrrolidine-1-yl)ethoxy)quinazoline]",185 nM,1080 nM,46.3 nM,5800 nM,5.6 nM,40.4 nM,,,,,,,,,,,,,,,
"COc1cc2c(Nc3ccc(Br)cc3F)ncnc2cc1OCCCN1CCCC1 [Compound 19, 4-(4-bromo-2-fluoroanilino)-6-methoxy-7-(3-(pyrrolidine-1-yl)propoxy)quinazoline]",112 nM,561 nM,38.2 nM,4650 nM,0.1 nM,21.2 nM,25.6 nM,1550 nM,4080 nM,1060 nM,15.7 nM,3590 nM,6.3 nM,1960 nM,2760 nM,1090 nM,110 nM,1430 nM,1660 nM,2060 nM,IC50 [16]: 9.1 nM; MTD [18]: 250 to 500 mg/kg; IC50 [20]: 10.6 nM; IC50 [23]: 113 nM; IC50 [24]: 66.3 nM; IC50 [26]: 220 nM
"COc1cc2c(Nc3ccc(Br)cc3F)ncnc2cc1OCCCCN(C)C [Compound 28, 4-(4-bromo-2-fluoroanilino)-6-methoxy-7-(4-(dimethylamino)-butoxy)quinazoline]",108 nM,704 nM,66.6 nM,4880 nM,0.1 nM,20.1 nM,27.4 nM,1470 nM,4470 nM,1360 nM,17.8 nM,4900 nM,9.3 nM,1830 nM,3960 nM,1610 nM,118 nM,1920 nM,1470 nM,2270 nM,IC50 [16]: 13.5 nM; MTD [18]: 250 to 500 mg/kg; IC50 [20]: 18.4 nM; IC50 [23]: 156 nM; IC50 [24]: 90.4 nM; IC50 [26]: 278 nM
"COc1cc2c(Nc3ccc(Br)cc3F)ncnc2cc1OCCCN(C)C [Compound 29, 4-(4-bromo-2-fluoroanilino)-6-methoxy-7-(3-(dimethylamino)-propoxy)quinazoline]",102 nM,652 nM,45.6 nM,5420 nM,0.6 nM,23.8 nM,30.8 nM,1830 nM,5150 nM,2740 nM,24.6 nM,5880 nM,7.1 nM,2560 nM,4450 nM,1370 nM,127 nM,2160 nM,2170 nM,2360 nM,IC50 [16]: 13.4 nM; MTD [18]: 125 to 250 mg/kg; IC50 [20]: 17.4 nM; IC50 [23]: 246 nM; IC50 [24]: 127 nM; IC50 [26]: 260 nM
"COc1cc2c(Nc3ccc(Cl)cc3F)ncnc2cc1OCCCN1CCCC1 [Compound 44, 4-(2-fluoro-4-chloroanilino)-6-methoxy-7-(3-(pyrrolidin-1-yl)-propoxy)quinazoline, reference compound]",315 nM,988 nM,124 nM,6980 nM,,198 nM,51.2 nM,2990 nM,6720 nM,3570 nM,39.8 nM,9680 nM,16.8 nM,4030 nM,5250 nM,2900 nM,257 nM,4900 nM,3460 nM,3050 nM,IC50 [16]: 23.4 nM; IC50 [20]: 40.5 nM; IC50 [23]: 306 nM; IC50 [26]: 424 nM
"COc1cc2c(Nc3ccc(Br)cc3F)ncnc2cc1OCCCN1CCCCC1 [Compound 45, 4-(2-fluoro-4-bromoanilino)-6-methoxy-7-(3-(piperidin-1-yl)-propoxy)quinazoline, reference compound]",290 nM,1060 nM,105 nM,7020 nM,9.7 nM,187 nM,50.1 nM,2990 nM,6720 nM,4150 nM,41.6 nM,6260 nM,18.7 nM,4990 nM,6260 nM,3790 nM,314 nM,5020 nM,3410 nM,3150 nM,IC50 [16]: 27.5 nM; IC50 [20]: 38.6 nM; IC50 [23]: 328 nM; IC50 [24]: 159 nM; IC50 [26]: 414 nM
"COc1cc2c(Nc3ccc(Br)cc3F)ncnc2cc1OCC1CCN(C)CC1 [Vandetanib, reference compound]",,1210 nM,167 nM,6860 nM,19.3 nM,,,,6260 nM,3230 nM,,6850 nM,14.9 nM,3510 nM,6850 nM,2530 nM,192 nM,4450 nM,3230 nM,2960 nM,
